Key:
[1] = target: μ receptors (Homo sapiens, UniProt P35372); test: Opiate receptor radioligand binding, competition with diprenorphine, naltrexone control; conditions: compared to naltrexone control; test concentration not given
Excerpt: Opiate Receptor Binding of (S)-7,8-saturated-4,5α-epoxy-morphinaniums. Radioligand binding assays may be conducted to determine the binding specificity of an (S)-7,8-saturated-4,5-epoxy-morphinanium for μ-, κ-, and δ-opiate receptors using methods adapted from scientific literature (Simonin, F et al 1994, Mol. Pharmacol. 46:1015-1021; Maguire, P. et al 1992, Eur. J. Pharmacol. 213:219-225; Simonin, F. et al PNAS USA 92(15):1431-1437; Wang, J B 1994, FEBS Lett 338:217-222). For example, a membrane may be associated with human opioid receptor material. Diprenorphine which has an affinity for all […] opioid receptors, can be used as a competitive challenge to the test compound. Membranes can then be separated, and the binding of the test compounds to the receptor material can be determined by scintillation counting. A control, such as naltrexone, can be used to determine relative binding affinity.

[2] = target: T1, μ-opioid receptors in the guinea pig ileum (Cavia porcellus, UniProt A0ACM8Q262); test: Field-stimulated guinea pig ileum, evaluation of agonist activity; conditions: for activation at 100 µM: 1.0E-04 M; for activation at 10 µM: 1.0E-05 M; for activation at 0.1 µM: 1.0E-07 M; for activation at 0.01 µM: 1.0E-08 M; for activation at 30 µM: 3.0E-05 M; for activation at 3 µM: 3.0E-06 M; for activation at 0.3 µM: 3.0E-07 M; for activation at 0.03 µM: 3.0E-08 M; for Response to compound + Naloxone, percent of the control response to DAMGO: compound 1.0E-04 M + Naloxone 1.0E-07 M; for activation at 1 µM: 1.0E-06 M
T1 sequence (A0ACM8Q262 1-400): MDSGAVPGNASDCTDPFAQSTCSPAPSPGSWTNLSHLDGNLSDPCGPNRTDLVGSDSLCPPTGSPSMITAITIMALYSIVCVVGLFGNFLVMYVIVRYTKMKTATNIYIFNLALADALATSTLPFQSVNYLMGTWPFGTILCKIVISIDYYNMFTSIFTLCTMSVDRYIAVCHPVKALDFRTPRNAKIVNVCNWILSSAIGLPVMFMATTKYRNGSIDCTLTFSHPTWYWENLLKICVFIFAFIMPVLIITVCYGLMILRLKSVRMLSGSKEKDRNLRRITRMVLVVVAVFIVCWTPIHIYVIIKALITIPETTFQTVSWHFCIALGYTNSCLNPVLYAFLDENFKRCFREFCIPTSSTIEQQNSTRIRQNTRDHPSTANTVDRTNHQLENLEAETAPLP
Experimental: (§1) In Vitro Pharmacology of (S)-7,8-saturated-4,5α-epoxy-morphinaniums on μ receptor. Mμ-receptor agonist/antagonist activity may be adjudged by use of field-stimulated guinea pig ileum by methods known in the art. For example, segments of guinea pig terminal ileum may be suspended in 20-ml organ baths filled with an oxygenated (95% O2 and 5% CO2) and pre-warmed (37° C.) physiological salt solution of the following composition (in mM): NaCl 118.0, KCl 4.7, MgSO4 1.2, CaCl2 2.5, KH2PO4 1.2, NaHCO3 25.0 and glucose 11.0 (pH 7.4). Additional experimental conditions that may be followed are described in Hutchinson et al. (1975) Brit. J. Pharmacol., 55:541-546.
(§2) Indomethacin (1 μM), nor-binaltorphimine (0.01 μM), methysergide (1 μM), ondansetron (10 μM) and GR113808 (0.1 μM) may be also present throughout an experiment to prevent prostanoid release and to block the k-opioid, 5-HT2, 5-HT3 and 5-HT4 receptors, respectively. The tissues in such tests are typically connected to force transducers for isometric tension recordings. The tissue may be stretched to a resting tension, for example, of 1 g then allowed to equilibrate, for example, about 60 min during which time they may be washed repeatedly and the tension readjusted. Electrical stimulation with pulses of minimal intensity to trigger maximal contractions and a short duration, for example, 1 ms duration, delivered by a constant current stimulator at a frequency such a 0.1 Hz.
Exemplar Test for Agonist Activity. The tissues may be exposed to a submaximal concentration of the reference agonist DAMGO (0.1 μM) to verify responsiveness and to obtain a control response. Following extensive washings and recovery of the control twitch contractions, the tissues may be exposed to increasing concentrations of the (S)-7,8-saturated-4,5-epoxy-morphinanium or the same agonist. The different concentrations may be added cumulatively and each left in contact with the tissues until a stable response is obtained or for a maximum of 15 min.

[3] = target: T1, μ-opioid receptors in the guinea pig ileum; test: Field-stimulated guinea pig ileum, evaluation of antagonist activity against DAMGO; conditions: for remaining activity at 100 µM / remaining activity at 10 µM / remaining activity at 1 µM / remaining activity at 0.1 µM / remaining activity at 0.01 µM / remaining activity at 30 µM / remaining activity at 3 µM / remaining activity at 0.3 µM / remaining activity at 0.03 µM: guinea pig, mean, n=2, read-out: Response to DAMGO (1.0E-07 M) in the presence of the compound, percent of the control response to DAMGO; for remaining activity at 100 µM: compound 1.0E-04 M; for remaining activity at 10 µM: compound 1.0E-05 M; for remaining activity at 1 µM: compound 1.0E-06 M; for remaining activity at 0.1 µM: compound 1.0E-07 M; for remaining activity at 0.01 µM: compound 1.0E-08 M; for remaining activity at 30 µM: compound 3.0E-05 M; for remaining activity at 3 µM: compound 3.0E-06 M; for remaining activity at 0.3 µM: compound 3.0E-07 M; for remaining activity at 0.03 µM: compound 3.0E-08 M; for Antagonist activity IC50 value: inhibition of the response to DAMGO, guinea pig ileum
Experimental: as §1, §2
Exemplary Test for Antagonist Activity. The tissues may be exposed to a submaximal concentration of the reference agonist DAMGO (0.1 μM) to obtain a control response. […] Each concentration may be left in contact with the tissues until a stable response is obtained or for a maximum time, such as 15 min. The maximum change in the amplitude of the electrically-evoked twitch contractions induced by each compound concentration may be measured. […] The EC50 value (concentration producing a half-maximum response) or IC50 value (concentration causing a half-maximum inhibition of the response to DAMGO) may be determined by linear regression analysis of the concentration-response curves. Inhibition of the DAMGO-induced response by the (S)-7,8-saturated-4,5-epoxy-morphinanium may indicate an antagonist activity at the μ receptors.

[4] = mean, n=2, read-out: Response to compound (decrease in twitch contraction amplitude), percent of the control response to DAMGO

Sequence of μ receptors (P35372 whole entry): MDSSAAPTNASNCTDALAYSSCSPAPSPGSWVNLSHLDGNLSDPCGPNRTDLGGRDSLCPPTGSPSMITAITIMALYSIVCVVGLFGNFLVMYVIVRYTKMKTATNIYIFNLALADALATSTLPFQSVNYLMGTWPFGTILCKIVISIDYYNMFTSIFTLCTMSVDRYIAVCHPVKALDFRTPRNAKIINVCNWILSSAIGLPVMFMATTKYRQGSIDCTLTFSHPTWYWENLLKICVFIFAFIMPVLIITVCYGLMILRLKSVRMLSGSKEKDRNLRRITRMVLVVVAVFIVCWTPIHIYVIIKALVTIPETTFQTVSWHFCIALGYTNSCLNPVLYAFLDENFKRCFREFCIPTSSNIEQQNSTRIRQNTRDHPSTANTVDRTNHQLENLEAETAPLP

| Structure (SMILES) | inhibition of control specific binding at the μ receptor [1] | activation at 100 µM [2, 4] | activation at 10 µM [2, 4] | activation at 0.1 µM [2, 4] | activation at 0.01 µM [2, 4] | activation at 30 µM [2, 4] | activation at 3 µM [2, 4] | activation at 0.3 µM [2, 4] | activation at 0.03 µM [2, 4] | Response to compound + Naloxone, percent of the control response to DAMGO ([2]; mean, n=2) | remaining activity at 100 µM [3] | remaining activity at 10 µM [3] | remaining activity at 1 µM [3] | remaining activity at 0.1 µM [3] | remaining activity at 0.01 µM [3] | remaining activity at 30 µM [3] | remaining activity at 3 µM [3] | remaining activity at 0.3 µM [3] | remaining activity at 0.03 µM [3] | Antagonist activity IC50 value [3] | other results |
| --- | --- | --- | --- | --- | --- | --- | --- | --- | --- | --- | --- | --- | --- | --- | --- | --- | --- | --- | --- | --- | --- |
| CC(C)=CC[N+]1(C)CC[C@]23c4c5ccc(O)c4O[C@H]2C(=O)CC[C@@]3(O)[C@H]1C5.[I-] (stereo partly drawn) [(S)-17-(3,3-dimethylallyl)-4,5α-epoxy-3,14-di-hydroxy-17-methyl-6-oxomorphinanium iodide] | 65% | – | – | – | – | – | – | – | – | – | – | – | – | – | – | – | – | – | – | – | – |
| CC(C)=CC[N+]1(C)CC[C@]23c4c5ccc(O)c4O[C@H]2C(=O)CC[C@@]3(O)[C@H]1C5.[I-] (stereo partly drawn) [(S)-DMAM, (S)-17-(3,3-dimethylallyl)-4,5α-epoxy-3,14-di-hydroxy-17-methyl-6-oxomorphinanium iodide] | – | 101% | 93% | 8% | 0% | 99% | 77% | 19% | 0% | 77% | 113% | 110% | 101% | 100% | 100% | 113% | 105% | 100% | 100% | No antagonist activity | EC50 ([2]; read-out: Agonist activity EC50 value, concentration producing a half-maximum response, guinea pig ileum): 1300 nM |
| C[C@@H](NC(=O)[C@@H](N)Cc1ccc(O)cc1)C(=O)NCC(=O)N(C)[C@@H](Cc1ccccc1)C(=O)NCCO [DAMGO, reference compound] | – | – | – | 96% | 57% | – | – | – | – | – | – | – | – | – | – | – | – | – | – | – | activation at 1 µM [2, 4]: 103%; activation at 0.001 µM ([2]; 1.0E-09 M, mean, n=2, read-out: Response to compound (decrease in twitch contraction amplitude), percent of the control response to DAMGO): 9%; Response to DAMGO + Naloxone, percent of the control response to DAMGO ([2]; highest DAMGO concentration + Naloxone 1.0E-07 M, mean, n=2): 4% |
| C[N+]1(CC#Cc2ccccc2)CC[C@]23c4c5ccc(O)c4O[C@H]2C(=O)CC[C@@]3(O)[C@H]1C5 (stereo partly drawn) [(S)-PM] | 80% | 89% | 53% | 6% | 0% | 71% | 38% | 12% | 0% | 30% | 110% | 100% | 100% | 100% | 100% | 100% | 100% | 100% | 100% | No antagonist activity | activation at 1 µM [2, 4]: 25% |
| C=CC[N+]1(CC2CC2)CC[C@]23c4c5ccc(O)c4O[C@H]2C(=O)CC[C@@]3(O)[C@H]1C5 (stereo partly drawn) [(S)-17-Allyl-17-cyclopropylmethyl-4,5α-epoxy-3,14-di-hydroxy-6-oxomorphinanium Iodide] | 68% | – | – | – | – | – | – | – | – | – | – | – | – | – | – | – | – | – | – | – | – |

Reference: patent US20080207669A1, “(S)-N-Stereoisomers of 7,8-Saturated-4,5-Epoxy-Morphinanium Analogs” (Progenics Pharmaceuticals, Inc., priority 2006, published 2008)
